Tests used:
[1] = Apparent intrinsic clearance in human liver microsomes in presence of NADPH; format: ADME; conditions: read-out: CLH(app)
Hepatocyte [2] = assay: Drug level in human hepatocytes treated with GSK; format: ADME, cell-based
Hepatocyte [3] = assay: Drug metabolism in human hepatocytes assessed as 4-ethyl-3,4-dihydro-2H-benzo[b][1,4]oxazine-6-carboxylic acid formation; format: ADME, cell-based
Hepatocyte [4] = assay: Drug metabolism in human hepatocytes assessed as N-(5-(2,6-dichlorophenyl)-1,3,4-thiadiazol-2-yl)-3-(ethylamino)-4-hydroxybenzamide formation; format: ADME, cell-based
Hepatocyte [5] = assay: Drug metabolism in human hepatocytes assessed as N-(5-(2,6-dichlorophenyl)-1,3,4-thiadiazol-2-yl)-4-(2-hydroxyethyl)-3,4-dihydro-2H-benzo[b][1,4]oxazine-6-carboxamide formation; format: ADME, cell-based
[6] = Intrinsic clearance in human hepatocytes; format: ADME, cell-based, Hepatocyte; conditions: read-out: CLH

Compound	microsomal CLint [1] [µL/min/mg]	other results
Cn1ncc2ncc(C(=O)Nc3nnc(C4CC4)s3)cc21	< 8	–
CCn1ncc2c(F)cc(C(=O)Nc3nnc(C4CC4)s3)cc21	8.6	–
CCn1ncc2c(F)cc(C(=O)Nc3nnc(C4(C)CCN(C(C)=O)CC4)s3)cc21	< 8.6	–
CCn1ncc2c(Cl)cc(C(=O)Nc3nnc(C4CC4)s3)cc21	10.9	–
O=C(Nc1nnc(-c2c(Cl)cccc2Cl)s1)c1ccc2c(c1)N(CCO)CCO2	–	Drug metabolism (Hepatocyte [2]): metabolite_detected
CCNc1cc(C(=O)Nc2nnc(-c3c(Cl)cccc3Cl)s2)ccc1O	–	Drug metabolism (Hepatocyte [2]): metabolite_detected
CCn1ncc2c(F)cc(C(=O)Nc3nnc(C4(C)CN(C(C)=O)C4)s3)cc21	< 8	–
CCn1ncc2c(F)cc(C(=O)Nc3nnc(C4(C)CCN(C(=O)CO)CC4)s3)cc21	< 8	–
CC(C)n1ncc2ccc(C(=O)Nc3nnc(C4CC4)s3)cc21	13.2	–
Cn1ncc2cc(C(=O)Nc3nnc(C4CC4)s3)ccc21	21.3	–
CCn1ncc2c(F)cc(C(=O)Nc3nnc(C4(C)CCN(C(=O)C(C)(C)O)CC4)s3)cc21	20	–
CCN1CCOc2ccc(C(=O)O)cc21	–	Drug metabolism (Hepatocyte [2]): metabolite_detected
CCN1CCOc2ccc(C(=O)Nc3nnc(-c4c(Cl)cccc4Cl)s3)cc21	–	Drug metabolism (Hepatocyte [3]): metabolite_detected; Drug metabolism (Hepatocyte [4]): metabolite_detected; Drug metabolism (Hepatocyte [5]): metabolite_detected; CLint scaled [1]: 39 mL/min/kg; CLint scaled [6]: 59 mL/min/kg
CCn1ncc2c(F)cc(C(=O)Nc3nnc(C4(C)CCN(C(C)=O)C4)s3)cc21 (racemic)	< 8	–
CCn1ncc2c(F)cc(C(=O)Nc3nnc(C4(C)CCN(C(=O)C(C)O)CC4)s3)cc21 (racemic)	< 8	–

Further lines, with some results ahead:

microsomal CLint [1] [µL/min/mg]	Compound	other results
< 8	CCn1ncc2ccc(C(=O)Nc3nnc(C4CC4)s3)cc21	–
< 8	Cn1ncc2ccc(C(=O)Nc3nnc(C4CC4)s3)cc21	–
25	CCN1CCOc2ccc(C(=O)Nc3nnc(C4CC4)s3)cc21	–
